Experimental data taken from patent US20020115678A1, “Compounds, compositions and methods for treating antibiotic-resistant infections” (priority 1996, published 2002).

How the values were obtained:
[1] = test system: Staphylococcus aureus methicillin-resistant wild type T67738; experiment: Susceptibility test (MIC, microtiter serial dilution), methicillin-resistant S. aureus; type: cell-based; conditions: MIC by serial dilution in Mueller-Hinton broth
Description: (§1) The strains were streaked on blood agar plates (trypticase soy broth containing 5% sheep cells). A single colony was isolated and grown in Mueller-Hinton Broth (MHB) as recommended by the national Committee for Clinical Laboratory Standards for rapidly growing bacteria. Candida species and related fungi were isolated in a similar manner on brain-heart infusion agar (BHI).
(§2) The antibiotic susceptibility profile of each strain was determined using standard microtiter dilution plates obtained from the Clinical Microbiology Laboratory at Ohio State University Hospitals. The Inocula were prepared by suspending a 4 hour log phase growth in MHB visually equal in turbidity of an 0.5 McFarland standard. Inocula were further diluted and added to microdilution trays to achieve a final density of approximately 1×10^5 CFU/ml. The trays were incubated for 16 to 20 hours at 35° C. The highest dilution at which wells remained clear was considered to be the minimum inhibitory concentration (MIC).
(§3) The MIC and minimum bacterial concentration (MBC) of the strains to the active agents were determined by two-fold dilutions in Mueller-Hinton broth. Susceptibility tests for ATCC-obtained microorganisms and clincal isolates of gram positive bacteria including methicillin-susceptible and resistant Staphylococci, Streptococci, Pneumococci and gram negative bacteria, including Enterobacteriaceae, Pseudomonas, Hemophilus and Neisseria, were performed in microtiter plates as described above. The MIC and MBC were determined after 48 hours incubation at 35-37° C. A sample of 0.01 ml was taken from each clear well at the MIC end-point and streaked on trypticase soy agar plates. After 24 hours incubation, the number of colonies was counted. The amount of the agent required to kill 99.9% of the bacteria was determined as the MBC. Susceptibility tests for ATCC isolates of Candida and other fungi were performed in BHI broth according to the NCCLS method. Two ml of MHB containing serial dilutions of the agents compounds were added to 13×100 mm tubes. An inoculum of 0.1 ml (prepared as described above) was then added to each tube. The final inoculum was approximately […]. The tubes were incubated at 35° C. in ambient air and read at 24 hours. The highest dilution at which the tubes remained clear was considered to be the MIC.
(§4) The MBC was determined as follows: After 48 hours incubation, tubes without visible growth were vortexed. A sample of 0.01 ml was taken from each tube and streaked on trypticase soy agar plates. After 24 hours, incubation, the number of colonies was counted. The amount of agent required to kill 99.9% of bacterial inoculum in the inoculum was determined as the MBC. Susceptibility tests for Mycobacteria were performed according to standard methods at the national Institutes of Health.
(§5) Compounds of the invention were dissolved in 1 ml of methanol and stored in aliquots at −70° C. They were diluted in Mueller-Hinton broth for final screening. Compositions were tested in 0.1 ml volumes by serial dilution in microtiter plates against Staphylococcus aureus methicillin-sensitive ATCC 29213 and the methicillin-resistant wild type T67738, as described above. The T67738 was resistant to most antimicrobial drugs, including ciprofloxacin.

[2] = test system: Staphylococcus aureus methicillin-sensitive ATCC 29213; experiment: Susceptibility test (MIC, microtiter serial dilution), methicillin-sensitive S. aureus; type: cell-based; conditions: methicillin-sensitive S. aureus ATCC 29213; MIC by serial dilution in Mueller-Hinton broth
Description: as §1, §2, §3, §4, §5

[3] = test system: Mycobacteria; experiment: Susceptibility tests for Mycobacteria (standard methods, National Institutes of Health); type: cell-based
Description: as §4

[4] = test system: bacterial pathogens; conditions: background statement; cited from earlier work

For `OC(c1cc(-c2ccc(Cl)cc2)nc2c(Cl)cc(Cl)cc12)C1CCCCN1` (centres unmarked) [#7936], the “Effective Concentration S. aureous Resist.” value [1] was <0.8 µg/mL and the “Effective Concentration S. aureous Sens.” value [2] was <0.8 µg/mL.

In the case of `OC(c1cc(-c2ccc(Cl)cc2)nc2ccccc12)C1CCCCN1` (centres unmarked) [#7929], the “Effective Concentration S. aureous Resist.” value [1] is reported as 6.25 µg/mL and the “Effective Concentration S. aureous Sens.” value [2] is reported as 6.25 µg/mL.

With `OC(c1cc(-c2ccc(C(F)(F)F)cc2)nc(-c2ccc(C(F)(F)F)cc2)c1)C1CCCCN1` (centres unmarked) [#153141] the “Effective Concentration Mycobacteria” value [3] was 0.5 µg/mL.

For `OC(c1cc(C(F)(F)F)nc2c(C(F)(F)F)cccc12)C1CCCCN1` (centres unmarked) [Mefloquine], the “activity against bacterial pathogens in vitro” value [4] is listed as “some activity”.

For `O=C(c1cc(-c2ccccc2)nc2c(Cl)cc(Cl)cc12)C1CCCCN1` (centres unmarked) [#169446], the “Effective Concentration Mycobacteria” value [3] was 2 µg/mL, the “Effective Concentration S. aureous Resist.” value [1] was 1.6 µg/mL and the “Effective Concentration S. aureous Sens.” value [2] was 1.6 µg/mL.

For `COc1cc(C(F)(F)F)c2nc(C(F)(F)F)cc(C(O)C3CCCCN3)c2c1` (centres unmarked) [#159314], the “Effective Concentration S. aureous Resist.” value [1] was 3.1 µg/mL and the “Effective Concentration S. aureous Sens.” value [2] was 6.25 µg/mL.

For `CCCC(CCC)NCC(O)c1cc(-c2ccc(Cl)cc2)nc(-c2ccc(Cl)cc2)c1` (centres unmarked) [#153136], the “Effective Concentration S. aureous Resist.” value [1] was 3.0 µg/mL.

For `COc1ccc2nc(-c3ccc(Cl)c(Cl)c3)cc(C(O)C3CCCCN3)c2c1` (centres unmarked) [#259398], the “Effective Concentration S. aureous Resist.” value [1] was 1.56 µg/mL and the “Effective Concentration S. aureous Sens.” value [2] was 1.56 µg/mL.

In the case of `CCC1CN2CCC1CC2C(O)c1ccnc2ccc(OC)cc12` (centres unmarked) [#112312], the “Effective Concentration Mycobacteria” value [3] is reported as 128 µg/mL, the “Effective Concentration S. aureous Resist.” value [1] is reported as 1.56 µg/mL and the “Effective Concentration S. aureous Sens.” value [2] is reported as 1.56 µg/mL.

In the case of `OC(c1cc(-c2ccccc2)nc2c(Cl)cc(Cl)cc12)C1CCCCN1` (centres unmarked) [#7930], the “Effective Concentration Mycobacteria” value [3] is reported as 2 µg/mL, the “Effective Concentration S. aureous Resist.” value [1] is reported as 1.6 µg/mL and the “Effective Concentration S. aureous Sens.” value [2] is reported as “<.08 µg/mL”.
